{
  "source": "patent US20230317203A1",
  "about": "“SCREENING METHOD” (University of Leeds, priority 2022, published 2023)",
  "key": {"BRISC": {"target": "BRISC (Homo sapiens, UniProt P46736+Q15018+Q9NXR7)", "experiment": "BRISC-mediated tetraubiquitin chain cleavage by Western blotting", "assay_type": "biochemical", "set-up": "made in house; host or cells: Spodoptera frugiperda (Sf9) insect cells", "settings": "K63-linked Ub4, Western blot, FIG. 6B", "description": "The potency of these analogues was characterised in the IQF assay with a fluorescent di-ubiquitin substrate. […] We confirmed the ability of these inhibitors to block BRISC-mediated tetraubiquitin chain cleavage by Western blotting (FIG. 6B)."}, "BRISC BRCC36 Arg167Ala": {"target": "BRISC BRCC36 Arg167Ala (Homo sapiens, UniProt P46736+Q15018+Q9NXR7, R167A)", "experiment": "IQF DUB assay, BRISC mutant BRCC36 Arg167Ala", "assay_type": "biochemical", "settings": "FIG. 4B", "experimental": "The four-subunit human BRISC (full-length (FL) and MERIT40ΔN, Abraxas2ΔC) complex was cloned using the MultiBac system and co-expressed in Spodoptera frugiperda (Sf9) insect cells^32. BRISC mutants were cloned into pFastBac vectors in the Bac-to-Bac system (ThermoFisher), baculoviruses generated in Sf9 cells and used for co-infection of Trichoplusia ni (Tni) cells. All BRISC complexes were purified as previously described^12,13.\nBRISC complexes were tested for activity in DUB reaction buffer containing 50 mM HEPES-NaOH pH 7.0, 100 mM NaCl, 0.1 mg/mL BSA, 1 mM DTT, and 0.003% Brij-35. […] Inhibitors were assayed at concentrations up to 200 μM. […] DUB activity was measured using internally quenched fluorescent (IQF) K63-linked diUb (Lifesensors, catalogue number: DU6303) at 50 or 100 nM. Cleaved diUb was monitored by measuring fluorescence intensity (Ex. 540 nm, Em. 580 nm; dichroic mirror 560 nm). Fluorescence intensity was measured every minute for 30 minutes at 30° C. Fluorescence intensity units for the first 10 minutes were plotted against time to generate a linear reaction progress curve, where the initial velocity (v0) corresponds to the gradient of the curve. IC50 values were calculated using the GraphPad Prism (v8.0) built-in dose-response equation for inhibitor concentration vs. response (variable slope). […]"}},
  "data": [
    {"smiles": "O=C(NC1C2CNCC21)c1nn(C(=O)c2c(Cl)cccc2Cl)cc1NC(=O)c1c(Cl)cccc1Cl", "note": "(centres unmarked) [FX-171-C]", "values": [
      {"measurement": "inhibition of tetraubiquitin chain cleavage", "setting": "BRISC", "value": "Dose-dependent inhibition"},
      {"measurement": "inhibitor sensitivity of mutant", "setting": "BRISC BRCC36 Arg167Ala", "value": "remained inhibitor sensitive"}
    ]}
  ]
}
